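Step 1: Grow cells in 96-well plates. Step 2: Expose to compound for 48 hours at 5 concentrations. Step 3: Interpolate endpoints linearly; if unreached, use highest concentration. The concentration for 50% growth inhibition is given as GI50.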 Active and inactive are the calls of the source. Cut-off read from the data, not from the text of the source: active = GI50 up to about 1.1 µM and inactive = higher.
How the values were obtained:
Test in all cases: NCI-60 cell line screen, 48 h
ACHN = system: ACHN
T47D = system: T47D
K562 = system: K562
SW-620 = system: SW-620
OVCAR-3 = system: OVCAR-3
MDA-MB-231 = system: MDA-MB-231
HOP-92 = system: HOP-92
MDA-N = system: MDA-N
NCI/ADR-RES = system: NCI/ADR-RES
BT-549 = system: BT-549
DU-145 = system: DU-145
SF-268 = system: SF-268
SK-MEL-2 = system: SK-MEL-2
CCRF-CEM = system: CCRF-CEM
M14 = system: M14
UACC-62 = system: UACC-62
NCI-H522 = system: NCI-H522
NCI-H23 = system: NCI-H23

Row | Structure (SMILES) | GI50 (ACHN) | GI50 (T47D) | GI50 (K562) | GI50 (SW-620) | GI50 (OVCAR-3) | GI50 (MDA-MB-231) | GI50 (HOP-92) | GI50 (MDA-N) | GI50 (NCI/ADR-RES) | GI50 (BT-549) | GI50 (DU-145) | GI50 (SF-268) | GI50 (SK-MEL-2) | GI50 (CCRF-CEM) | GI50 (M14) | GI50 (UACC-62) | GI50 (NCI-H522) | GI50 (NCI-H23)
1 | CCOC(=O)c1[nH]c(Br)c(-c2ccc(OC)c(OC)c2)c1Br | 0.0242 µM (active) | 21 µM (inactive) | 0.0121 µM (active) | 0.0302 µM (active) | 0.0163 µM (active) | 0.321 µM (active) | 7.46 µM (inactive) | 0.00567 µM (active) | 0.00434 µM (active) | 0.054 µM (active) | 0.0476 µM (active) | 0.178 µM (active) | 0.0336 µM (active) | 0.0173 µM (active) | 0.028 µM (active) | 0.0418 µM (active) | 0.00991 µM (active) | 0.0891 µM (active)
2 | OCCNc1ncnc2c1ncn2C1OC(CO)C(O)C1O (configuration not stated) | 71.3 µM (inactive) | > 100 µM (inactive) | – | > 100 µM (inactive) | 52.1 µM (inactive) | 25.5 µM (inactive) | 51.4 µM (inactive) | > 100 µM (inactive) | 50.6 µM (inactive) | > 100 µM (inactive) | 19.3 µM (inactive) | 91.6 µM (inactive) | > 100 µM (inactive) | 30.3 µM (inactive) | > 100 µM (inactive) | > 100 µM (inactive) | 47.3 µM (inactive) | > 100 µM (inactive)
3 | CC(=O)NCCC1CN(C(=O)/C=C/I)c2ccccc21 (configuration not stated) | 6.59 µM (inactive) | 2.04 µM (inactive) | 3.73 µM (inactive) | 2.1 µM (inactive) | 5.86 µM (inactive) | 2.91 µM (inactive) | 1.9 µM (inactive) | 3.08 µM (inactive) | 10.1 µM (inactive) | 5.42 µM (inactive) | 15.7 µM (inactive) | 9.08 µM (inactive) | 3.29 µM (inactive) | 2.95 µM (inactive) | 3.37 µM (inactive) | 5.07 µM (inactive) | 1.39 µM (inactive) | 11.9 µM (inactive)
4 | COc1ccc2nc3c([N+](=O)[O-])ccc4c3c(c2c1)N=CN4CCN(C)C | 3.66 µM (inactive) | 5.14 µM (inactive) | 0.726 µM (active) | 3.3 µM (inactive) | 4.55 µM (inactive) | 1.84 µM (inactive) | 5.06 µM (inactive) | 4.71 µM (inactive) | 3.18 µM (inactive) | 12 µM (inactive) | 4.09 µM (inactive) | 4.09 µM (inactive) | 9.23 µM (inactive) | 0.764 µM (active) | 4.8 µM (inactive) | 8.71 µM (inactive) | 2.03 µM (inactive) | 7.55 µM (inactive)
5 | CC1=C(CO)C(=O)O[C@@H]([C@@H](C)[C@H]2CC[C@H]3[C@@H]4C[C@@H](O)[C@@]5(O)CC=CC(=O)[C@]5(C)[C@H]4CC[C@]23C)C1 [JABOROSALACTONE D] | 26.8 µM (inactive) | 58.1 µM (inactive) | 26.8 µM (inactive) | 21.7 µM (inactive) | 36 µM (inactive) | 31.3 µM (inactive) | 42 µM (inactive) | 45 µM (inactive) | 21.1 µM (inactive) | 27.7 µM (inactive) | 35.2 µM (inactive) | 92.3 µM (inactive) | 43.7 µM (inactive) | 33.2 µM (inactive) | 49.2 µM (inactive) | 29.6 µM (inactive) | 14.2 µM (inactive) | 21.2 µM (inactive)
6 | O=C1NC(=S)NC(=O)C1=Cc1cccc2cc3ccccc3cc12 | 1.95 µM (inactive) | 0.9 µM (active) | 2.07 µM (inactive) | 2.58 µM (inactive) | 1.76 µM (inactive) | 2.01 µM (inactive) | 1.66 µM (inactive) | 2.19 µM (inactive) | 2.22 µM (inactive) | 1.71 µM (inactive) | 1.47 µM (inactive) | 2.06 µM (inactive) | 1.92 µM (inactive) | 0.378 µM (active) | 2.24 µM (inactive) | 1.87 µM (inactive) | 1.91 µM (inactive) | 1.87 µM (inactive)
7 | CO[C@H]1[C@@H](O)[C@@H](C)O[C@@H](O[C@H]2CC[C@@]3(C)[C@H](CC[C@@H]4[C@@H]3CC[C@]3(C)[C@@H](C5=CC(=O)OC5)CC[C@]43O)C2)[C@@H]1O [ODOROSIDE H] | 0.00304 µM (active) | 0.0333 µM (active) | – | < 0.0025 µM (active) | 0.00531 µM (active) | 0.0413 µM (active) | 0.0127 µM (active) | 0.00767 µM (active) | 0.00548 µM (active) | 0.00514 µM (active) | 0.00377 µM (active) | 0.00422 µM (active) | 0.0169 µM (active) | 0.00422 µM (active) | 0.0137 µM (active) | 0.00689 µM (active) | < 0.0025 µM (active) | 0.00462 µM (active)
8 | O/N=C(/CC(O)(C(F)(F)F)C(F)(F)F)c1ccccc1 | > 10 µM (inactive) | > 10 µM (inactive) | > 10 µM (inactive) | > 10 µM (inactive) | > 10 µM (inactive) | > 10 µM (inactive) | > 10 µM (inactive) | > 10 µM (inactive) | > 10 µM (inactive) | > 10 µM (inactive) | > 10 µM (inactive) | > 10 µM (inactive) | > 10 µM (inactive) | > 10 µM (inactive) | > 10 µM (inactive) | > 10 µM (inactive) | > 10 µM (inactive) | > 10 µM (inactive)
